Measurements: PubChem BioAssay AID330 (DTP/NCI, 2004)
Values joined by “and” are separate entries in the source; they are usually repeats but may differ in a detail not shown here. Equal values may be shown once. Inconclusive results and toxic doses are left out.

Tested on: P388 leukemia ip, CD2F1 mice, survival T/C
Experiment: NCI In Vivo Anticancer Drug Screen. Data for tumor model P388 Leukemia (intraperitoneal) in CD2F1 (CDF1) mice
Details: endpoint: median survival time, higher = longer survival
Method in brief: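 Mice carrying the transplanted tumor received test compound or vehicle. Survival was recorded in each group, and the value is the treated-group measurement divided by that of the vehicle-treated control group.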

[1] = dose: 50.0 mg/kg/injection, schedule: Q01DX009 (ip), vehicle: saline with Tween-80
[2] = dose: 100.0 mg/kg/injection, schedule: Q01DX009 (ip), vehicle: saline with Tween-80
[3] = dose: 50.0 mg/kg/injection, schedule: Q01DX005 (ip), vehicle: Klucel (hydroxypropylcellulose) (HPC)
[4] = dose: 100.0 mg/kg/injection, schedule: Q01DX005 (ip), vehicle: Klucel (hydroxypropylcellulose) (HPC)
[5] = dose: 200.0 mg/kg/injection, schedule: Q01DX005 (ip), vehicle: Klucel (hydroxypropylcellulose) (HPC)
[6] = dose: 50.0 mg/kg/injection, schedule: Q01DX009 (ip), vehicle: Klucel (hydroxypropylcellulose) (HPC)
[7] = dose: 100.0 mg/kg/injection, schedule: Q01DX009 (ip), vehicle: Klucel (hydroxypropylcellulose) (HPC)
[8] = dose: 200.0 mg/kg/injection, schedule: Q01DX009 (ip), vehicle: Klucel (hydroxypropylcellulose) (HPC)
[9] = dose: 60.0 mg/kg/injection, schedule: Q01DX005 (ip), vehicle: saline with Tween-80
[10] = dose: 120.0 mg/kg/injection, schedule: Q01DX005 (ip), vehicle: saline with Tween-80
[11] = dose: 240.0 mg/kg/injection, schedule: Q01DX005 (ip), vehicle: saline with Tween-80

C(#Cc1ccncc1)c1ccncc1
T/C (dose: 50.0 mg/kg/injection, schedule: Q01DX005 (ip), vehicle: saline with Tween-80): 100 % of control
T/C (dose: 100.0 mg/kg/injection, schedule: Q01DX005 (ip), vehicle: saline with Tween-80): 98 % of control

CC1CNC(=O)NC1=O (stereo not given)
T/C [1]: 94 % of control
T/C [2]: 86 % of control

Nc1nc(N)c(Cc2ccncc2)cc1Cc1ccncc1
T/C [3]: 112 % of control
T/C [4]: 101 % of control
T/C [5]: 111 % of control

CC(C)C(O)Cc1cc(=O)[nH]c2ccccc12 (stereo not given)
T/C (dose: 100.0 mg/kg/injection, schedule: Q04DX002 (ip), vehicle: saline with Tween-80): 87 % of control
T/C (dose: 200.0 mg/kg/injection, schedule: Q04DX002 (ip), vehicle: saline with Tween-80): 87 % of control
T/C (dose: 400.0 mg/kg/injection, schedule: Q04DX002 (ip), vehicle: saline with Tween-80): 86 % of control

O=C1NC(O)c2cc(O)ccc2O1 (stereo not given)
T/C [3]: 100 % of control
T/C [4]: 100 % of control
T/C [5]: 111 % of control

Cn1c2ccccc2c(=O)c2ccc(Cl)cc21
T/C (dose: 25.0 mg/kg/injection, schedule: Q01DX009 (ip), vehicle: Klucel (hydroxypropylcellulose) (HPC)): 117 % of control
T/C [6]: 111 % of control
T/C [7]: 114 % of control
T/C [8]: 88 % of control
T/C (dose: 400.0 mg/kg/injection, schedule: Q01DX009 (ip), vehicle: Klucel (hydroxypropylcellulose) (HPC)): 104 % of control

CC1[C@@H]2CC=C3[C@H]4CCC5Cc6nc7c(nc6C[C@@]5(C)C4(O)CC(=O)[C@]32CO[C@]12OC(C)(C)CC2O)CC1CC[C@@H]2C3=C[C@H]4O[C@@]5(O[C@@](C)(CO)C[C@@H]5O)C(C)[C@@]4(O)[C@]3(C)[C@@H](O)CC2[C@]1(C)C7 (stereo not given in full)
T/C (dose: 10.0 micrograms/kg/injection, schedule: Q01DX005 (ip), vehicle: saline + alcohol): 114 % of control and 117 % of control
T/C (dose: 20.0 micrograms/kg/injection, schedule: Q01DX005 (ip), vehicle: saline + alcohol): 121 % of control

COc1ccccc1/C=N\NC(=O)C(=O)N/N=C\c1ccccc1OC
T/C [6]: 86 % of control
T/C [7]: 90 % of control
T/C [8]: 98 % of control

COc1ccc(C(=O)C(CCC(=O)c2ccc(O)cc2)S(C)(=O)=O)cc1 (stereo not given)
T/C [3]: 100 % of control
T/C [4]: 93 % of control
T/C [5]: 96 % of control

O=[N+]([O-])c1ccc(O)c(CN2CCC(O)(c3ccccc3)CC2)c1
T/C (dose: 100.0 mg/kg/injection, schedule: Q04DX003 (ip), vehicle: Klucel (hydroxypropylcellulose) (HPC)): 108 % of control
T/C (dose: 200.0 mg/kg/injection, schedule: Q04DX003 (ip), vehicle: Klucel (hydroxypropylcellulose) (HPC)): 99 % of control
T/C (dose: 400.0 mg/kg/injection, schedule: Q04DX003 (ip), vehicle: Klucel (hydroxypropylcellulose) (HPC)): 107 % of control

O=C(CC(=O)c1ccc(Cl)s1)C(=O)Nc1cccc(C(F)(F)F)c1
T/C [9]: 105 % of control
T/C [10]: 102 % of control
T/C [11]: 106 % of control

C[C@@H]1C[C@H]2OC(=O)[C@@]3(C)CCC[C@@](C)([C@@H]23)[C@@]1(O)CCc1ccoc1
T/C (dose: 12.5 mg/kg/injection, schedule: Q01DX005 (ip), vehicle: Klucel (hydroxypropylcellulose) (HPC)): 108 % of control
T/C (dose: 25.0 mg/kg/injection, schedule: Q01DX005 (ip), vehicle: Klucel (hydroxypropylcellulose) (HPC)): 105 % of control
T/C [3]: 106 % of control
T/C [4]: 97 % of control

NC(=S)c1ccc(N=Cc2ccccc2)cc1
T/C (dose: 12.5 mg/kg/injection, schedule: Q01DX001 (ip), vehicle: Klucel (hydroxypropylcellulose) (HPC)): 101 % of control
T/C (dose: 25.0 mg/kg/injection, schedule: Q01DX001 (ip), vehicle: Klucel (hydroxypropylcellulose) (HPC)): 101 % of control
T/C (dose: 50.0 mg/kg/injection, schedule: Q01DX001 (ip), vehicle: Klucel (hydroxypropylcellulose) (HPC)): 95 % of control

Cc1cc(Cl)ccc1S(=O)(=O)F
T/C [1]: 113 % of control
T/C [2]: 113 % of control
T/C (dose: 200.0 mg/kg/injection, schedule: Q01DX009 (ip), vehicle: saline with Tween-80): 98 % of control

COc1ccc2nc3cc(Cl)ccc3c(NCCCNCCCCNCCCNc3c4ccc(Cl)cc4nc4ccc(OC)cc34)c2c1
T/C (dose: 0.62 mg/kg/injection, schedule: Q01DX009 (ip), vehicle: other): 106 % of control
T/C (dose: 1.25 mg/kg/injection, schedule: Q01DX009 (ip), vehicle: other): 110 % of control
T/C (dose: 2.5 mg/kg/injection, schedule: Q01DX009 (ip), vehicle: other): 119 % of control

COC(=O)c1nnn(-c2cccc(Cl)c2)c1C(=O)c1ccc(Cl)c(Cl)c1
T/C [9]: 100 % of control
T/C [10]: 87 % of control
T/C [11]: 88 % of control

Cc1c(-c2nc(N)nc(C3CC3)c2C)nc(N)nc1C1CC1
T/C (dose: 60.0 mg/kg/injection, schedule: Q01DX005 (ip), vehicle: saline): 102 % of control
T/C (dose: 120.0 mg/kg/injection, schedule: Q01DX005 (ip), vehicle: saline): 100 % of control
